This test deals with M. avium clinical isolate Koav 25 (WT). Kind of test: microbe, parasite or virus in culture. As to conditions: Koav 25 (K 25), WT; for MIC: Mycobacterium avium. In kind it is cell-based.

Molecules are shown by their SMILES. “And” between values parts separate entries of the source, which are not always exact repeats. Equal entries are not always repeated. Where two headings read alike, the source gives them in different places.

Experimental findings from publication PMC12291913 (Antibiotics, 2025) are described below.

Turning to `Cc1c(N2CC(N(C)C)C2)c(F)cc2c(=O)c(C(=O)O)cn(-c3nc(N)c(F)cc3F)c12` [WQ-3810], the “mean FICIm” value amounted to 0.75 (FQ with EMB) and 0.39 (FQ with INH). For the same compound, the FICIm runs as follows: (FQ+EMB, single replicates) 0.75; (FQ+INH, single replicates) 0.5 and 0.375 and 0.3125. In addition, the “FIC of FQ” value (pair with EMB) turned out to be 0.25 µg/mL. In addition, the MIC is, setting by setting: (checkerboard (S2: with 1 µg/ml EMB), read-out: MIC of FQ with EMB) 0.25 µg/mL; (checkerboard, single replicates, read-out: MIC of drug alone) 1 µg/mL.
